For one test, the system named is DLD-1 BRCA2(−/−) cells. Put plainly: Cell growth inhibition assay (CellTiter-Glo), DLD-1 BRCA2(−/−). The test is classed as cell-based. The note with it: Homo sapiens, DLD-1, 168 h; 200 cells/well, 7 days, CellTiter Glo 2.0; read-out: DLD-1 BRCA2(−/−) pEC50 (converted). Here is the method: (§1) Cell proliferation was measured through the cell viability assay using DLD-1 BRCA2(−/−) and parental isogenic pair and MDA-MB-436 (mutated BRCA1) cell lines. The CellTiter-Glo (CTG) based cell viability assay is designed to determine the number of viable cells in the culture because of compound effect, by quantifying ATP, which indicates the presence of metabolically active cells.
(§2) DLD-1 BRCA2(−/−) and parental isogenic pair were cultured in RPMI 1640 supplemented with […] (FBS), and […] cells were cultured in DMEM supplemented with 10% FBS. Both were cultured at 37° C. with […]. Invention compounds were distributed to the 384 well plate (Corning, 3764) using Echo acoustic liquid handler to form a 1:3 serially diluted final concentration with top dose of 10 or 30 μM. The cells were seeded into the plate in the density of 50 cells/well (DLD-1 parental), 200 cells/well (DLD-1 BRCA2−/−), or 500 cells/well (MDA-MB-436). After a short spun, the cells were cultured in a well moisturized incubator at 37° C. with 5% CO2 for 7 days without disturbance. The cell viability was measured by CellTiter Glo 2.0 assay kit (Promega, G9243), and growth inhibition rate was calculated and plotted against final compound concentration, and the data were fitted in Xfit to generate IC50 values.
(In general: In ATP-based viability assays light output follows the ATP content of the culture.)

For a further test, the target named is T1, PARP2 (Homo sapiens, UniProt Q9UGN5).
T1 construct: made in house
As to the kind of experiment: Biochemical fluorescent polarization (FP) assay, displacement of PARPi-FL, PARP2. The test is classed as binding. To be noted: 20 nM protein, 3 nM PARPi-FL, 4 h at room temperature; read-out: FP PARP2 pIC50 (converted). The procedure:
(§3) Compounds were characterized using an assay measuring the displacement of a commercially available fluorescently labeled PARP 1/2 inhibitor (PARPi-FL, Tocris Biosciences, #6461) as exemplified in assays performed in WO2014/064149 and WO2021/013735A1. The assay was performed utilizing the following method: Compounds were dissolved in DMSO an Echo550 liquid handler was utilized to make serial dilations in the desired concentration range in Optiplate-384F plates. 100% DMSO was used for the high (with protein) and low (without protein) control samples. 20 nL of compound or DMSO alone was added to individual assay plate wells. PARP1 and PARP2 protein were expressed, purified, and diluted in assay buffer containing 50 mM Tris pH 8.0, 0.001% Triton X-100, 10 mM MgCl2, 150 mM NaCl to a final concentration of 20 nM. The PARPi-FL was then added at a final concentration of 3 nM. The assay plate was centrifuged at 1000 rpm for 1 min and incubated for 4 h at room temperature. […] [formula]

In another test the target is T2, PARP1 (Homo sapiens, UniProt P09874).
T2 construct: made in house
As to the kind of experiment: Biochemical fluorescent polarization (FP) assay, displacement of PARPi-FL, PARP1. The test is classed as binding. The note with it: 20 nM protein, 3 nM PARPi-FL, 4 h at room temperature; for IC50: read-out: FP PARP1 pIC50 (converted). The procedure: as §3

Test [1] relates to MDA-MB-436 (mutated BRCA1) cells. As to the kind of experiment: Cell growth inhibition assay (CellTiter-Glo), MDA-MB-436. The test is classed as cell-based. To be noted: Homo sapiens, MDA-MB-436, 168 h, 500 cells/well, 7 days, CellTiter Glo 2.0; read-out: MDA-MB-436 pEC50 (converted). Here is the method: as §1, §2
In the next test the test system is DLD-1 parental cells. As to the kind of experiment: Cell growth inhibition assay (CellTiter-Glo), DLD-1 parental. The test is classed as cell-based. To be noted: Homo sapiens, DLD-1, 168 h; 50 cells/well, 7 days, CellTiter Glo 2.0; read-out: DLD-1 parental pEC50 (converted). The procedure: as §1, §2

Molecules are shown by their SMILES.

T1 sequence (Q9UGN5 whole entry): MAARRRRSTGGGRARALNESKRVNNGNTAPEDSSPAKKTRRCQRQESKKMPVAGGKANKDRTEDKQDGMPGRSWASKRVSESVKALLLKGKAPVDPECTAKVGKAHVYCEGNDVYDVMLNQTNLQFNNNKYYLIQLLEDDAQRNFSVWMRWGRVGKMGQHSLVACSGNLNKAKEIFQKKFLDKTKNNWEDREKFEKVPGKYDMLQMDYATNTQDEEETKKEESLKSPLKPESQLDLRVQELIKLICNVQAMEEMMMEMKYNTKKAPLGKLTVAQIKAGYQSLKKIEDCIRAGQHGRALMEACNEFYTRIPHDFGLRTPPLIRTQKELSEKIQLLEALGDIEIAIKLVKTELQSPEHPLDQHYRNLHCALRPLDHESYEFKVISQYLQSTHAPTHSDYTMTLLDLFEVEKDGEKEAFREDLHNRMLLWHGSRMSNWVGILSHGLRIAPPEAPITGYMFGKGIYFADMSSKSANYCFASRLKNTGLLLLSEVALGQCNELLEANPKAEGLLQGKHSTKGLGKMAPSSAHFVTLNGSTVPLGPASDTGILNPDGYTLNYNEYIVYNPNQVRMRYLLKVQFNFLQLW
T2 sequence (P09874 whole entry): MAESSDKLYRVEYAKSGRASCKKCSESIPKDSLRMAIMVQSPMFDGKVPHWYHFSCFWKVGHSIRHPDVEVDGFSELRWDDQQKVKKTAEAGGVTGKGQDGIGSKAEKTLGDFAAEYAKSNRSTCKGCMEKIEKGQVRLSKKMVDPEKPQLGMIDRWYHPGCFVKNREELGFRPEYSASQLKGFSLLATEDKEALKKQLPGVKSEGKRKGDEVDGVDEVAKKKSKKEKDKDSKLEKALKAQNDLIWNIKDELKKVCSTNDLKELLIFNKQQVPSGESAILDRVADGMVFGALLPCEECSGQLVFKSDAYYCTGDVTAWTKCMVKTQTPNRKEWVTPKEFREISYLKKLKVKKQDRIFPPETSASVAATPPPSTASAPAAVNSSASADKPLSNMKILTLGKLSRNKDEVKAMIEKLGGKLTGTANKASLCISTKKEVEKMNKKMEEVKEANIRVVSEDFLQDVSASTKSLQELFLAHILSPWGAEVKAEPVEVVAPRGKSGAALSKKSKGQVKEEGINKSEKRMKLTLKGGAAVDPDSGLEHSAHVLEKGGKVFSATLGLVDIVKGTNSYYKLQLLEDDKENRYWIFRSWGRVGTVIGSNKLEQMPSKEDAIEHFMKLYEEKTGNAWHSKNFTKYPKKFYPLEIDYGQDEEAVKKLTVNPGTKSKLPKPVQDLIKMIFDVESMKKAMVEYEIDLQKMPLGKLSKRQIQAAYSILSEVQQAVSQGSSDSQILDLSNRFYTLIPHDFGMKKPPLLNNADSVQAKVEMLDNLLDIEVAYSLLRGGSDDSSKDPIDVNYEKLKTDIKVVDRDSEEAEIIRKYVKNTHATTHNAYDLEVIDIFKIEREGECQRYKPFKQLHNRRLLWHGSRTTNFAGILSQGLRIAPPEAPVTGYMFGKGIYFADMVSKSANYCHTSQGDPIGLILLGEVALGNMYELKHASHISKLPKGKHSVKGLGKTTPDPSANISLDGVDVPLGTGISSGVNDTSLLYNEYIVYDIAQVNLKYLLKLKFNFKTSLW

As to `CCc1nc2c(F)cc(CN3CCN(c4ccc(C#N)cn4)CC3)cc2[nH]c1=O` [Example 5, 6-(4-((2-ethyl-8-fluoro-3-oxo-3,4-dihydroquinoxalin-6-yl)methyl)piperazin-1-yl)nicotinonitrile], the EC50 (in the test on DLD-1 BRCA2(−/−) cells; in test [1]) was 3.98 nM each time. Further, the IC50 at PARP2 was > 100000 nM. Further, the “FP PARP1 pIC50” value at PARP1 is reported as 8.5.
As for `Cc1cc2ncc([C@@H](C)N3CCN(c4ccc(C#N)cn4)CC3)cc2[nH]c1=O` (single isomer, unassigned) [Example 33], the EC50 in the test on DLD-1 BRCA2(−/−) cells was 3.16 nM; in test [1], 2.51 nM. Moreover, the values for the IC50 at PARP2 and on PARP1 were 6310 nM and 2.51 nM, respectively.
For `N#Cc1ccc(N2CCN(Cc3cnc4cc(Cl)c(=O)[nH]c4c3)CC2)nc1` [Example 57], the EC50 with DLD-1 BRCA2(−/−) cells was 2.51 nM; in the test with DLD-1 parental cells, 20000 nM; in test [1], 2 nM. Moreover, the IC50 at PARP2 is 50100 nM; on PARP1, 5.01 nM.
Turning to `C[C@@H]1CN(Cc2cnc3cc(C4CC4)c(=O)[nH]c3c2)CCN1c1ccc(F)cn1` [Example 22], the values for the EC50 (in the test on DLD-1 BRCA2(−/−) cells; in test [1]) were 126 nM and 158 nM, respectively. The IC50 is 12600 nM on PARP2 and 7.94 nM at PARP1.
On to `Cc1cc2ncc(CN3CCN(c4ccc(F)cn4)[C@H](C)C3)cc2[nH]c1=O` [Example 23], for which the figures for the EC50 (in the test with DLD-1 BRCA2(−/−) cells; in test [1]) were 100 nM and 200 nM, respectively. For the same compound, the figures for the IC50 on PARP2 and on PARP1 were > 100000 nM and 39.8 nM, respectively.
The corresponding values for `C[C@@H]1CN(Cc2cnc3cc(C4CC4)c(=O)[nH]c3c2)CCN1c1ccc(C#N)cn1` [Example 25] are 31.6 nM, 50.1 nM, > 100000 nM and 6.31 nM.
For the compound `Cc1cc2ncc(CN3CCN(c4ccc(C#N)cn4)[C@H](C)C3)cc2[nH]c1=O` [Example 24], the EC50 is 79.4 nM in the test on DLD-1 BRCA2(−/−) cells and 50.1 nM in test [1]. The IC50 at PARP2 was > 100000 nM; at PARP1, 10 nM.
On to `CCc1cc2ncc(CN3CCN(c4ccc(Cl)cn4)CC3)cc2[nH]c1=O` [Example 8], for which the EC50 with DLD-1 BRCA2(−/−) cells was 5.01 nM; in test [1], 3.16 nM. Further, the IC50 is > 100000 nM on PARP2 and 15.8 nM on PARP1.
Take `Cc1cc2ncc([C@H](C)N3CCN(c4ccc(C#N)cn4)[C@H](C)C3)cc2[nH]c1=O` (single isomer, unassigned) [Example 29]: the EC50 was 63.1 nM with DLD-1 BRCA2(−/−) cells and 79.4 nM in test [1]. In addition, the IC50 on PARP2 was > 100000 nM; at PARP1, 6.31 nM.
As to `Cc1nc2ccc(CN3CCN(c4ccc(C#N)cn4)CC3)cc2[nH]c1=O` [Example 84], the EC50 in the test with DLD-1 BRCA2(−/−) cells was 6.31 nM; in test [1] it was 7.94 nM. Besides, the IC50 on PARP2 was 50100 nM; on PARP1 it was 10 nM.
`Cc1cc2ncc(CN3CCN(c4ccc(C#N)nc4C(F)F)CC3)cc2[nH]c1=O` [Example 31]: the EC50 is 15.8 nM in the test on DLD-1 BRCA2(−/−) cells and 6.31 nM in test [1]. The IC50 on PARP2 was > 100000 nM; on PARP1 it was 6.31 nM.
As for `CCc1cc2ncc(CN3CCN(c4ccc(C#N)cn4)CC3)cc2[nH]c1=O` [Example 10], the EC50 (in the test on DLD-1 BRCA2(−/−) cells; in test [1]) was 0.794 nM throughout. The IC50 at PARP2 was 5010 nM; at PARP1, 5.01 nM.
As to `CCc1cc2ncc(CN3CCN(c4ccc(C#N)c(F)c4)CC3)cc2[nH]c1=O` [Example 38], the figures for the EC50 (in the test with DLD-1 BRCA2(−/−) cells; in test [1]) were 0.631 nM and 0.501 nM, respectively. The IC50 on PARP2 is 501 nM; at PARP1 it was 5.01 nM.
Take `Cc1cc2ncc(CN3CCN(c4ccc(C#N)cn4)[C@H]4C[C@H]43)cc2[nH]c1=O` (single isomer, unassigned) [Example 19]: the figures for the EC50 (in the test on DLD-1 BRCA2(−/−) cells; in test [1]) were 200 nM and 158 nM, respectively. In addition, the IC50 was > 100000 nM at PARP2 and 6.31 nM on PARP1.
The corresponding values for `CCc1cc2ncc(CN3CCC(c4ccc(C#N)cn4)CC3)cc2[nH]c1=O` [Example 64] are 5.01 nM, 2 nM, > 100000 nM and 5.01 nM.
Consider `Cc1cc2ncc(CN3CCN(c4ncc(C#N)cc4F)CC3)cc2[nH]c1=O` [Example 30], for which the EC50 (with DLD-1 BRCA2(−/−) cells; in test [1]) was > 1000 nM each time. For the same compound, the results for the IC50 at PARP2 and on PARP1 were > 100000 nM and 15.8 nM, respectively.
Consider `CCc1cc2ncc(CN3CCN(c4ccc(C#N)cc4C#N)CC3)cc2[nH]c1=O` [Example 52], for which the EC50 was 0.794 nM in the test with DLD-1 BRCA2(−/−) cells and 0.631 nM in test [1]. The results for the IC50 at PARP2 and on PARP1 were 12600 nM and 25.1 nM, respectively.
The corresponding values for `CCc1cc2ncc(CN3CCN(c4ccc(C#N)cc4OC)CC3)cc2[nH]c1=O` [Example 39] are 2 nM, 1.26 nM, > 100000 nM and 6.31 nM.
On the same counts, the results for `N#Cc1ccc(N2CCN(Cc3cnc4cc(Cl)c(=O)[nH]c4c3)CC2)cc1` [Example 66] are 2 nM, 1.58 nM, > 100000 nM and 5.01 nM.
Regarding `CCc1cc2ncc(CN3CCN(c4ccc(C#N)nc4)CC3)cc2[nH]c1=O` [Example 3, 5-{4-[(7-ethyl-6-oxo-5H-1,5-naphthyridin-3-yl)methyl]piperazin-1-yl}pyridine-2-carbonitrile], the EC50 is 3.16 nM with DLD-1 BRCA2(−/−) cells, > 31600 nM in the test with DLD-1 parental cells and 2.51 nM in test [1].
For `Cc1c(Cl)c(=O)[nH]c2cc(CN3CCN(c4ccc(C#N)cc4)CC3)cnc12` [Example 2, 4-{4-[(7-chloro-8-methyl-6-oxo-5H-1,5-naphthyridin-3-yl)methyl]piperazin-1-yl}benzonitrile], the EC50 in the test with DLD-1 BRCA2(−/−) cells was 1.58 nM; in test [1], 1.26 nM. Moreover, the IC50 on PARP2 was 7940 nM; on PARP1, 50.1 nM.
In the case of `Cc1c(Cl)c(=O)[nH]c2cc(CN3CCN(c4ccc(C#N)cn4)CC3)cnc12` [Example 36, 6-{4-[(7-chloro-8-methyl-6-oxo-5H-1,5-naphthyridin-3-yl)methyl]piperazin-1-yl}pyridine-3-carbonitrile], the EC50 with DLD-1 BRCA2(−/−) cells was 1.26 nM; in test [1], 1 nM. The results for the IC50 on PARP2 and at PARP1 were 2000 nM and 5.01 nM, respectively.
Turning to `Cc1cc2ncc(CN3CCN(c4ccc(C#N)c(F)c4)CC3)cc2[nH]c1=O` [Example 44], the EC50 was 2.51 nM in the test with DLD-1 BRCA2(−/−) cells and 1.58 nM in test [1]. The IC50 is 3160 nM on PARP2 and 10 nM at PARP1.
With `Cc1cc2c(F)cc(CN3CCN(c4ccc(C#N)cn4)CC3)cc2[nH]c1=O` [Example 79], the results for the EC50 (in the test on DLD-1 BRCA2(−/−) cells; in test [1]) were 7.94 nM and 5.01 nM, respectively. The IC50 at PARP2 was 12600 nM; at PARP1, 10 nM.
For `Cc1cc2ncc(CN3CCN(c4ccc(C#N)cn4)CC3)cc2[nH]c1=O` [Example 6], the values for the EC50 (in the test on DLD-1 BRCA2(−/−) cells; with DLD-1 parental cells; in test [1]) were 2.51 nM, > 31600 nM and 2.51 nM, respectively. Moreover, the IC50 was 5010 nM on PARP2 and 5.01 nM on PARP1.
Turning to `Cc1cc2ncc(CN3CCN(c4ccc(C#N)nc4F)CC3)cc2[nH]c1=O` [Example 78], the EC50 in the test on DLD-1 BRCA2(−/−) cells was 3.98 nM; in test [1], 3.16 nM. The IC50 on PARP2 was > 100000 nM; at PARP1, 6.31 nM.

Values taken from patent US12384780B2, “PARP1 inhibitors and uses thereof” (XinThera, Inc., priority 2022, dated 2025).
